Patent publication US7595401B2, “Therapeutic compounds and their use in cancer” (Myriad Pharmaceuticals, Inc., priority 2006, dated 2009)

Biological target: purified human Hsp90
Experiment: Binding Assay: fluorescence polarization with BODIPY-labeled geldanamycin
Details: BODIPY-GM 10 nM, Hsp90 30 nM
How it was run: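 Fluorescence polarization competition with BODIPY-geldanamycin (10 nM final) and human Hsp90 (30 nM final) in HEPES-KOH pH 7.3 buffer with molybdate, NP-40, DTT; 2% DMSO, overnight at room temperature. Read 485/530 nm; percent inhibition from mP normalized to DMSO controls, fluorescent-compound points excluded.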

SMILES	IC50 [µM]	% Inhibition at 5 μM Compound Concentration [%]
COc1cc(Sc2nc3c(N)ncnc3n2CCc2c(Cl)cccc2Cl)c(OC)cc1Cl [Example 255, 8-[(4-Chloro-2,5-dimethoxyphenyl)thio]-9-[2-(2,6-dichlorophenyl)ethyl]-9H-purin-6-amine]	0.25	
CC(C)(C)OC(=O)N[C@H]1CC[C@@H](CCn2c(Sc3cc4c(cc3Br)OCO4)nc3c(N)ncnc32)CC1 [Example 398, tert-Butyl [cis-4-(2-{6-amino-8-[(6-bromo-1,3-benzodioxol-5-yl)thio]-9H-purin-9-yl}ethyl)cyclohexyl]carbamate]	0.14	
Cc1ccccc1CCn1c(Sc2cc3c(cc2Br)OCO3)nc2c(N)ncnc21 [Example 155, 8-(6-Bromo-benzo[1,3]dioxol-5-ylsulfanyl)-9-(2-o-tolyl-ethyl)-9H-purin-6-ylamine]	0.095	
Nc1ncnc2c1nc(Sc1cc3c(cc1Br)OCO3)n2CCc1cccs1 [Example 203, 8-(6-Bromo-benzo[1,3]dioxol-5-ylsulfanyl)-9-(2-thiophen-2-yl-ethyl)-9H-purin-6-ylamine]	0.09	
Nc1ncn(CCc2cccs2)c2nc(Sc3cc4c(cc3Br)OCO4)nc1-2 [Example 204, 8-(6-bromo-benzo[1,3]dioxol-5-ylsulfanyl)-3-(2-thiophen-2-yl-ethyl)-3H-purin-6-ylamine]		11
COc1ccc(OC)c(Sc2nc3c(N)ncnc3n2CCn2ccnc2)c1 [Example 335, 8-[(2,5-Dimethoxyphenyl)thio]-9-[2-(1H-imidazol-1-yl)ethyl]-9H-purin-6-amine]	3	
COc1ccc(OC)c(Sc2nc3c(N)ncnc3n2CCc2ccccc2C)c1 [Example 69, 8-(2,5-Dimethoxy-phenylsulfanyl)-9-(2-o-tolyl-ethyl)-9H-purin-6-ylamine]	0.25	69
Nc1ncnc2c1nc(Sc1cc3c(cc1Br)OCO3)n2CCc1ccccc1C(F)(F)F [Example 290, 8-[(6-Bromo-1,3-benzodioxol-5-yl)thio]-9-{2-[2-(trifluoromethyl)phenyl]ethyl}-9H-purin-6-amine]	0.07	
CC(=O)c1ccc(CCn2cnc(N)c3nc(Sc4cc5c(cc4Br)OCO5)nc2-3)cc1 [Example 160, 1-(4-{2-[6-amino-8-(6-bromo-benzo[1,3]dioxol-5-ylsulfanyl)-purin-3-yl]-ethyl}-phenyl)-ethanone]		0
Nc1ncnc2c1nc(Sc1cc3c(cc1Br)OCO3)n2CCn1cnc2ccccc2c1=O [Example 269, 3-(2-{6-Amino-8-[(6-bromo-1,3-benzodioxol-5-yl)thio]-9H-purin-9-yl}ethyl)quinazolin-4(3 H)-one]	5.5	
N#Cc1cc2c(cc1Sc1nc3c(N)ncnc3n1CCc1ccccc1)OCO2 [Example 320, 6-{[6-Amino-9-(2-phenylethyl)-9H-purin-8-yl]thio}-1,3-benzodioxole-5-carbonitrile]	0.24	
C[C@@H](NC(=O)OC(C)(C)C)C(=O)N1CCCC(CCn2c(Sc3cc4c(cc3Br)OCO4)nc3c(N)ncnc32)C1 (stereo partly drawn) [Example 701, tert-Butyl{(1R)-2-[3-(2-{6-amino-8-[(6-bromo-1,3-benzodioxol-5-yl)thio]-9H-purin-9-yl}ethyl)piperidin-1-yl]-1-methyl-2-oxoethyl}carbamate]	0.2	
CN1CCCC1CCn1c(Sc2cc3c(cc2Br)OCO3)nc2c(N)ncnc21 (stereo not drawn) [Example 355, 8-[(6-Bromo-1,3-benzodioxol-5-yl)thio]-9-[2-(1-methylpyrrolidin-2-yl)ethyl]-9H-purin-6-amine]	> 25	
CN1[C@@H]2CC[C@H]1C[C@@H](CCn1c(Sc3cc4c(cc3Br)OCO4)nc3c(N)ncnc31)C2 [Example 426, 8-[(6-Bromo-1,3-benzodioxol-5-yl)thio]-9-{2-[(3-endo)-8-methyl-8-azabicyclo[3.2.1]oct-3-yl]ethyl}-9H-purin-6-amine]	0.15	
Nc1ncnc2c1nc(Sc1cc3c(cc1Br)OCO3)n2CCC(N)C1CC1 (stereo not drawn) [Example 687, 9-(3-Amino-3-cyclopropylpropyl)-8-[(6-bromo-1,3-benzodioxol-5-yl)thio]-9H-purin-6-amine]	0.08	
CC(C)NC(=O)N1CCC(CCn2cnc(N)c3nc(Sc4cc5c(cc4Br)OCO5)nc2-3)CC1 [Example 439, 4-(2-{6-Amino-8-[(6-bromo-1,3-benzodioxol-5-yl)thio]-3H-purin-3-yl}ethyl)-N-isopropylpiperidine-1-carboxamide]		24
COc1ccc(Sc2nc3c(N)ncn(CCC4CCN(C(C)=O)CC4)c-3n2)cc1F [Example 568, 3-[2-(1-Acetylpiperidin-4-yl)ethyl]-8-[(3-fluoro-4-methoxyphenyl)thio]-3 H-purin-6-amine]		0.00
Nc1ncn(CCc2ccccc2[N+](=O)[O-])c2nc(Sc3cc4c(cc3Br)OCO4)nc1-2 [Example 208, 8-(6-bromo-benzo[1,3]dioxol-5-ylsulfanyl)-3-[2-(2-nitro-phenyl)-ethyl]-3H-purin-6-ylamine]	> 25	46

SMILES	IC50 [µM]	% Inhibition at 5 μM Compound Concentration [%]
CN(C)c1ccc(CCn2cnc(N)c3nc(Sc4cc5c(cc4Br)OCO5)nc2-3)cc1 [Example 188, 8-(6-bromo-benzo[1,3]dioxol-5-ylsulfanyl)-3-[2-(4-dimethylamino-phenyl)-ethyl]-3H-purin-6-ylamine]		21
COc1ccc(OC)c(Sc2nc3c(N)ncn(CC4(c5ccc(Cl)cc5)CCC4)c-3n2)c1 [Example 62, 3-[1-(4-chloro-phenyl)-cyclobutylmethyl]-8-(2,5-dimethoxy-phenylsulfanyl)-3H-purin-6-ylamine]	> 10	
CC(C)(C)OC(=O)NC(CCn1c(Sc2cc3c(cc2Br)OCO3)nc2c(N)ncnc21)C1CC1 (stereo not drawn) [Example 662, tert-Butyl (3-{6-amino-8-[(6-bromo-1,3-benzodioxol-5-yl)thio]-9H-purin-9-yl}-1-cyclopropylpropyl)carbamate]	0.3	
Cc1ccc(CCn2cnc(N)c3nc(Sc4cc5c(cc4Br)OCO5)nc2-3)cc1 [Example 164, 8-(6-bromo-benzo[1,3]dioxol-5-ylsulfanyl)-3-(2-p-tolyl-ethyl)-3H-purin-6-ylamine]		0
COc1ccc(OC)c(Sc2nc3c(N)ncn(CCc4ccccc4Br)c-3n2)c1 [Example 142, 3-[2-(2-bromo-phenyl)-ethyl]-8-(2,5-dimethoxy-phenylsulfanyl)-3H-purin-6-ylamine]		0
COc1cc(Sc2nc3c(N)ncnc3n2CCC2CCN(C=O)CC2)c2ocnc2c1 [Example 534, 4-(2-{6-Amino-8-[(5-methoxy-1,3-benzoxazol-7-yl)thio]-9 H-purin-9-yl}ethyl)piperidine-1-carbaldehyde]	5	
COc1ccc(OC)c(Sc2nc3c(N)ncnc3n2CCc2cccc([N+](=O)[O-])c2)c1 [Example 223, 8-(2,5-Dimethoxy-phenylsulfanyl)-9-[2-(3-nitro-phenyl)-ethyl]-9H-purin-6-ylamine]	0.5	
C[C@@H](C(=O)N1CCC(CCn2c(Sc3cc4c(cc3Br)OCO4)nc3c(N)ncnc32)CC1)N(C)C(=O)OC(C)(C)C [Example 715, tert-Butyl{(1S)-2-[4-(2-{6-amino-8-[(6-bromo-1,3-benzodioxol-5-yl)thio]-9H-purin-9-yl}ethyl)piperidin-1-yl]-1-methyl-2-oxoethyl}methylcarbamate]	> 2	
Nc1ncnc2c1nc(Sc1cc3c(cc1Br)OCO3)n2CCn1ccnc1 [Example 381, 8-[(6-Bromo-1,3-benzodioxol-5-yl)thio]-9-[2-(1H-imidazol-1-yl)ethyl]-9H-purin-6-amine]	0.39	
CC(C)(C)C(=O)N1CCC(CCn2cnc(N)c3nc(Sc4cc5c(cc4Br)OCO5)nc2-3)CC1 [Example 452, 8-[(6-Bromo-1,3-benzodioxol-5-yl)thio]-3-{2-[1-(2,2-dimethylpropanoyl)piperidin-4-yl]ethyl}-3H-purin-6-amine]		21
Nc1ncnc2c1nc(Sc1ccc3c(c1)OC(F)(F)O3)n2CCc1ccccc1Cl [Example 294, 9-[2-(2-Chlorophenyl)ethyl]-8-[(2,2-difluoro-1,3-benzodioxol-5-yl)thio]-9H-purin-6-amine]	> 25	
COc1ccc(OC)c(Sc2nc3c(N)ncn(CC4(c5ccc(Cl)cc5)CC4)c-3n2)c1 [Example 280, 3-{[1-(4-Chlorophenyl)cyclopropyl]methyl}-8-[(2,5-dimethoxyphenyl)thio]-3H-purin-6-amine]		0.0
COc1ccc(OC)c(Sc2nc3c(N)ncn(CCc4ccccc4F)c-3n2)c1 [Example 30, 8-(2,5-dimethoxy-phenylsulfanyl)-3-[2-(2-fluoro-phenyl)-ethyl]-3H-purin-6-ylamine]	> 10	16
Nc1ccccc1CCn1c(Sc2cc3c(cc2Br)OCO3)nc2c(N)ncnc21 [Example 282, 9-[2-(2-Aminophenyl)ethyl]-8-[(6-bromo-1,3-benzodioxol-5-yl)thio]-9H-purin-6-amine]	0.055	
COc1ccc(OC)c(Sc2nc3c(N)ncnc3n2CCc2ccc(NC(=O)OC(C)(C)C)cc2)c1 [Example 214, (4-{2-[6-Amino-8-(2,5-dimethoxy-phenylsulfanyl)-purin-9-yl]-ethyl}-phenyl)-carbamic acid tert-butyl ester]	0.95	
COc1ccc(OC)c(Sc2nc3c(N)ncn(CCc4ccc(C(=O)O)cc4)c-3n2)c1 [Example 82, 4-{2-[6-Amino-8-(2,5-dimethoxy-phenylsulfanyl)-purin-3-yl]-ethyl}-benzoic acid]		5
COc1ccc(C)cc1Sc1nc2c(N)ncnc2n1CCc1ccccc1 [Example 314, 8-[(2-Methoxy-5-methylphenyl)thio]-9-(2-phenylethyl)-9H-purin-6-amine]	6.8	
Nc1ncnc2c1nc(Sc1cc3c(cc1Br)OCO3)n2CC(c1ccccc1)C1CCCC1 (stereo not drawn) [Example 101, 8-(6-Bromo-benzo[1,3]dioxol-5-ylsulfanyl)-9-(2-cyclopentyl-2-phenyl-ethyl)-9H-purin-6-ylamine]	> 3	
